# Test results published in US20240116998A1, “GLUCAGON-LIKE PEPTIDE-1 RECEPTOR ANTAGONISTS” (INDIANA UNIVERSITY RESEARCH AND TECHNOLOGY CORPORATION, priority 2021, published 2024).
# Non-standard residues stand in square brackets, D forms with d. Residues, ends and D or L forms follow the SMILES beside them. *: point of attachment. Palmitoyl = CCCCCCCCCCCCCCCC(=O)*; Aib = CC(C)(N)C(=O)O
# Experiment: Solubility of peptides in buffer
# Format: physicochemical
# Settings: Table 3; 80 mM AmBicarb pH 7.7; unit not given
row,SMILES,Solubility 80 mM AmBicarb pH 7.7
1,CCCCCCCCCCCCCCCC(=O)NCCCC[C@H](NC(=O)[C@H](CO)NC(=O)[C@@H]1CCCN1C(=O)[C@@H]1CCCN1C(=O)[C@@H]1CCCN1C(=O)[C@H](C)NC(=O)CNC(=O)[C@H](CO)NC(=O)[C@H](CO)NC(=O)[C@@H]1CCCN1C(=O)CNC(=O)CNC(=O)[C@H](CCCNC(=N)N)NC(=O)[C@@H](NC(=O)[C@H](CC(C)C)NC(=O)[C@H](Cc1c[nH]c2ccccc12)NC(=O)[C@H](C)NC(=O)[C@@H](NC(=O)[C@H](Cc1ccccc1)NC(=O)[C@H](CCC(=O)O)NC(=O)[C@H](CCCNC(=N)N)NC(=O)[C@@H](NC(=O)[C@H](C)NC(=O)[C@H](CCC(=O)O)NC(=O)[C@H](CCC(=O)O)NC(=O)[C@H](CCC(=O)O)NC(=O)[C@H](CC(C)C)NC(=O)[C@H](Cc1ccc(O)cc1)NC(=O)[C@H](CO)NC(=O)[C@H](CO)NC(=O)[C@@H](NC(=O)[C@@H](N)CC(=O)O)C(C)C)C(C)C)[C@@H](C)CC)C(C)C)C(N)=O [SEQ ID NO: 71] (H-DVSSYLEEEAVREFIAWLVRGGPSSGAPPPSK(Palmitoyl)-NH2; N-terminus assumed),>20
2,CCCCCCCCCCCCCCCC(=O)NCCCC[C@H](NC(=O)[C@H](CO)NC(=O)[C@@H]1CCCN1C(=O)[C@@H]1CCCN1C(=O)[C@@H]1CCCN1C(=O)[C@H](C)NC(=O)CNC(=O)[C@H](CO)NC(=O)[C@H](CO)NC(=O)[C@@H]1CCCN1C(=O)CNC(=O)CNC(=O)[C@H](CCCNC(=N)N)NC(=O)[C@@H](NC(=O)[C@H](CC(C)C)NC(=O)[C@H](Cc1c[nH]c2ccccc12)NC(=O)[C@H](CCC(=O)O)NC(=O)[C@@H](NC(=O)[C@H](Cc1ccccc1)NC(=O)[C@H](CCC(=O)O)NC(=O)[C@H](CCCNC(=N)N)NC(=O)[C@@H](NC(=O)[C@H](C)NC(=O)[C@H](CCC(=O)O)NC(=O)[C@H](CCC(=O)O)NC(=O)[C@H](CCC(=O)O)NC(=O)[C@H](CC(C)C)NC(=O)[C@H](Cc1ccc(O)cc1)NC(=O)[C@H](CO)NC(=O)[C@H](CO)NC(=O)[C@@H](NC(=O)[C@@H](N)CC(=O)O)C(C)C)C(C)C)[C@@H](C)CC)C(C)C)C(N)=O [SEQ ID NO: 72] (H-DVSSYLEEEAVREFIEWLVRGGPSSGAPPPSK(Palmitoyl)-NH2; N-terminus assumed),>20
3,CCCCCCCCCCCCCCCC(=O)NCCCC[C@H](NC(=O)[C@H](CO)NC(=O)[C@@H]1CCCN1C(=O)[C@@H]1CCCN1C(=O)[C@@H]1CCCN1C(=O)[C@H](C)NC(=O)CNC(=O)[C@H](CO)NC(=O)[C@H](CO)NC(=O)[C@@H]1CCCN1C(=O)CNC(=O)CNC(=O)[C@H](CCCNC(=N)N)NC(=O)[C@@H](NC(=O)[C@H](CC(C)C)NC(=O)[C@H](Cc1c[nH]c2ccccc12)NC(=O)[C@H](CCC(=O)O)NC(=O)[C@@H](NC(=O)[C@H](Cc1ccccc1)NC(=O)[C@H](CCC(=O)O)NC(=O)[C@H](CCCNC(=N)N)NC(=O)[C@@H](NC(=O)[C@H](C)NC(=O)[C@H](CCC(=O)O)NC(=O)[C@H](CCC(=O)O)NC(=O)[C@H](CCC(=O)O)NC(=O)[C@H](CC(C)C)NC(=O)[C@H](Cc1ccc(O)cc1)NC(=O)[C@H](CCCNC(=N)N)NC(=O)[C@H](CO)NC(=O)[C@@H](NC(=O)[C@@H](N)CC(=O)O)C(C)C)C(C)C)[C@@H](C)CC)C(C)C)C(N)=O [SEQ ID NO: 75] (H-DVSRYLEEEAVREFIEWLVRGGPSSGAPPPSK(Palmitoyl)-NH2),18.5

# Same assay, conditions: pH 7.4
row,SMILES,solubility
1,CCCCCCCCCCCCCCCC(=O)NCCCC[C@H](NC(=O)[C@H](CO)NC(=O)[C@@H]1CCCN1C(=O)[C@@H]1CCCN1C(=O)[C@@H]1CCCN1C(=O)[C@H](C)NC(=O)CNC(=O)[C@H](CO)NC(=O)[C@H](CO)NC(=O)[C@@H]1CCCN1C(=O)CNC(=O)CNC(=O)C(C)(C)NC(=O)[C@@H](NC(=O)[C@H](CCCCN)NC(=O)[C@H](Cc1c[nH]c2ccccc12)NC(=O)[C@H](C)NC(=O)[C@@H](NC(=O)[C@H](Cc1ccccc1)NC(=O)[C@H](CCC(=O)O)NC(=O)[C@H](CCCNC(=N)N)NC(=O)[C@@H](NC(=O)[C@H](C)NC(=O)[C@H](CCC(N)=O)NC(=O)[C@H](CCC(=O)O)NC(=O)[C@H](CCC(=O)O)NC(=O)[C@H](CC(C)C)NC(=O)[C@H](Cc1ccc(O)cc1)NC(=O)[C@H](CO)NC(=O)[C@H](CO)NC(=O)[C@@H](NC(=O)[C@@H](N)CC(=O)O)C(C)C)C(C)C)[C@@H](C)CC)C(C)C)C(N)=O [SEQ ID NO: 82],100 µg/mL
2,CCCCCCCCCCCCCCCC(=O)NCCCC[C@H](NC(=O)[C@H](CO)NC(=O)[C@@H]1CCCN1C(=O)[C@@H]1CCCN1C(=O)[C@@H]1CCCN1C(=O)[C@H](C)NC(=O)CNC(=O)[C@H](CO)NC(=O)[C@H](CO)NC(=O)[C@@H]1CCCN1C(=O)CNC(=O)CNC(=O)[C@H](CCCCN)NC(=O)[C@@H](NC(=O)C(C)(C)NC(=O)[C@H](Cc1c[nH]c2ccccc12)NC(=O)[C@H](C)NC(=O)[C@@H](NC(=O)[C@H](Cc1ccccc1)NC(=O)[C@H](CCC(=O)O)NC(=O)[C@H](CCCNC(=N)N)NC(=O)[C@@H](NC(=O)[C@H](C)NC(=O)[C@H](CCC(N)=O)NC(=O)[C@H](CCC(=O)O)NC(=O)[C@H](CCC(=O)O)NC(=O)[C@H](CC(C)C)NC(=O)[C@H](Cc1ccc(O)cc1)NC(=O)[C@H](CO)NC(=O)[C@H](CO)NC(=O)[C@@H](NC(=O)[C@@H](N)CC(=O)O)C(C)C)C(C)C)[C@@H](C)CC)C(C)C)C(N)=O [SEQ ID NO: 44] (H-DVSSYLEEQAVREFIAW[Aib]VKGGPSSGAPPPSK(Palmitoyl)-NH2; N-terminus assumed),100 µg/mL
3,CCCCCCCCCCCCCCCC(=O)NCCCC[C@H](NC(=O)[C@H](CO)NC(=O)[C@@H]1CCCN1C(=O)[C@@H]1CCCN1C(=O)[C@@H]1CCCN1C(=O)[C@H](C)NC(=O)CNC(=O)[C@H](CO)NC(=O)[C@H](CO)NC(=O)[C@@H]1CCCN1C(=O)CNC(=O)CNC(=O)C(C)(C)NC(=O)[C@H](CCCCN)NC(=O)[C@H](CC(C)C)NC(=O)[C@H](Cc1c[nH]c2ccccc12)NC(=O)[C@H](C)NC(=O)[C@@H](NC(=O)[C@H](Cc1ccccc1)NC(=O)[C@H](CCC(=O)O)NC(=O)[C@H](CCCNC(=N)N)NC(=O)[C@@H](NC(=O)[C@H](C)NC(=O)[C@H](CCC(N)=O)NC(=O)[C@H](CCC(=O)O)NC(=O)[C@H](CCC(=O)O)NC(=O)[C@H](CC(C)C)NC(=O)[C@H](Cc1ccc(O)cc1)NC(=O)[C@H](CO)NC(=O)[C@H](CO)NC(=O)[C@@H](NC(=O)[C@@H](N)CC(=O)O)C(C)C)C(C)C)[C@@H](C)CC)C(N)=O [SEQ ID NO: 43],200 µg/mL
4,CCCCCCCCCCCCCCCC(=O)NCCCC[C@H](NC(=O)[C@H](CO)NC(=O)[C@@H]1CCCN1C(=O)[C@@H]1CCCN1C(=O)[C@@H]1CCCN1C(=O)[C@H](C)NC(=O)CNC(=O)[C@H](CO)NC(=O)[C@H](CO)NC(=O)[C@@H]1CCCN1C(=O)CNC(=O)CNC(=O)[C@H](CCCCN)NC(=O)[C@@H](NC(=O)[C@H](CC(C)C)NC(=O)[C@H](Cc1c[nH]c2ccccc12)NC(=O)[C@H](C)NC(=O)[C@@H](NC(=O)[C@H](Cc1ccccc1)NC(=O)[C@H](CCC(=O)O)NC(=O)[C@H](CCCNC(=N)N)NC(=O)C(C)(C)NC(=O)[C@H](C)NC(=O)[C@H](CCC(N)=O)NC(=O)[C@H](CCC(=O)O)NC(=O)[C@H](CCC(=O)O)NC(=O)[C@H](CC(C)C)NC(=O)[C@H](Cc1ccc(O)cc1)NC(=O)[C@H](CO)NC(=O)[C@H](CO)NC(=O)[C@@H](NC(=O)[C@@H](N)CC(=O)O)C(C)C)[C@@H](C)CC)C(C)C)C(N)=O [SEQ ID NO: 45] (H-DVSSYLEEQA[Aib]REFIAWLVKGGPSSGAPPPSK(Palmitoyl)-NH2; N-terminus assumed),400 µg/mL
5,CCCCCCCCCCCCCCCC(=O)NCCCC[C@H](NC(=O)[C@H](CO)NC(=O)[C@@H]1CCCN1C(=O)[C@@H]1CCCN1C(=O)[C@@H]1CCCN1C(=O)[C@H](C)NC(=O)CNC(=O)[C@H](CO)NC(=O)[C@H](CO)NC(=O)[C@@H]1CCCN1C(=O)CNC(=O)CNC(=O)[C@H](CCCCN)NC(=O)C(C)(C)NC(=O)[C@H](CC(C)C)NC(=O)[C@H](Cc1c[nH]c2ccccc12)NC(=O)[C@H](C)NC(=O)[C@@H](NC(=O)[C@H](Cc1ccccc1)NC(=O)[C@H](CCC(=O)O)NC(=O)[C@H](CCCNC(=N)N)NC(=O)[C@@H](NC(=O)[C@H](C)NC(=O)[C@H](CCC(N)=O)NC(=O)[C@H](CCC(=O)O)NC(=O)[C@H](CCC(=O)O)NC(=O)[C@H](CC(C)C)NC(=O)[C@H](Cc1ccc(O)cc1)NC(=O)[C@H](CO)NC(=O)[C@H](CO)NC(=O)[C@@H](NC(=O)[C@@H](N)CC(=O)O)C(C)C)C(C)C)[C@@H](C)CC)C(N)=O [SEQ ID NO: 81] (H-DVSSYLEEQAVREFIAWL[Aib]KGGPSSGAPPPSK(Palmitoyl)-NH2; N-terminus assumed),1600 µg/mL
6,CCCCCCCCCCCCCCCC(=O)NCCCC[C@H](NC(=O)[C@H](CO)NC(=O)[C@@H]1CCCN1C(=O)[C@@H]1CCCN1C(=O)[C@@H]1CCCN1C(=O)[C@H](C)NC(=O)CNC(=O)[C@H](CO)NC(=O)[C@H](CO)NC(=O)[C@@H]1CCCN1C(=O)CNC(=O)CNC(=O)[C@H](CCCCN)NC(=O)[C@@H](NC(=O)[C@H](CC(C)C)NC(=O)[C@H](Cc1c[nH]c2ccccc12)NC(=O)C(C)(C)NC(=O)[C@@H](NC(=O)[C@H](Cc1ccccc1)NC(=O)[C@H](CCC(=O)O)NC(=O)[C@H](CCCNC(=N)N)NC(=O)[C@@H](NC(=O)[C@H](C)NC(=O)[C@H](CCC(N)=O)NC(=O)[C@H](CCC(=O)O)NC(=O)[C@H](CCC(=O)O)NC(=O)[C@H](CC(C)C)NC(=O)[C@H](Cc1ccc(O)cc1)NC(=O)[C@H](CO)NC(=O)[C@H](CO)NC(=O)[C@@H](NC(=O)[C@@H](N)CC(=O)O)C(C)C)C(C)C)[C@@H](C)CC)C(C)C)C(N)=O [SEQ ID NO: 83] (H-DVSSYLEEQAVREFI[Aib]WLVKGGPSSGAPPPSK(Palmitoyl)-NH2; N-terminus assumed),300 µg/mL
7,CCCCCCCCCCCCCCCC(=O)NCCCC[C@H](NC(=O)[C@H](CO)NC(=O)[C@@H]1CCCN1C(=O)[C@@H]1CCCN1C(=O)[C@@H]1CCCN1C(=O)[C@H](C)NC(=O)CNC(=O)[C@H](CO)NC(=O)[C@H](CO)NC(=O)[C@@H]1CCCN1C(=O)CNC(=O)CNC(=O)[C@H](CCCCN)NC(=O)[C@@H](NC(=O)[C@H](CC(C)C)NC(=O)[C@H](Cc1c[nH]c2ccccc12)NC(=O)[C@H](C)NC(=O)[C@@H](NC(=O)[C@H](Cc1ccccc1)NC(=O)[C@H](CCC(=O)O)NC(=O)[C@H](CCCNC(=N)N)NC(=O)[C@@H](NC(=O)[C@H](C)NC(=O)[C@H](CCC(N)=O)NC(=O)C(C)(C)NC(=O)[C@H](CCC(=O)O)NC(=O)[C@H](CC(C)C)NC(=O)[C@H](Cc1ccc(O)cc1)NC(=O)[C@H](CO)NC(=O)[C@H](CO)NC(=O)[C@@H](NC(=O)[C@@H](N)CC(=O)O)C(C)C)C(C)C)[C@@H](C)CC)C(C)C)C(N)=O [SEQ ID NO: 84] (H-DVSSYLE[Aib]QAVREFIAWLVKGGPSSGAPPPSK(Palmitoyl)-NH2; N-terminus assumed),200 µg/mL
